{
  "source": "patent US6589452B2",
  "about": "“Photochemically controlled photonic crystal diffraction” (University of Pittsburgh, priority 2000, dated 2003)",
  "assay_type_in_all_cases": "physicochemical",
  "key": {"[1]": {"test": "water solubility of the azobenzene derivative", "conditions": "compared with non-derivatized azobenzene", "description": "In addition, it retains similar photochemical properties as non-derivatized azobenzene.\nIn a particular embodiment of the invention, an azobenzene derivative, which is modified in order to increase its water solubility, is attached to the reactive PCCA through the reaction of the epoxide groups inside the hydrogel with primary amino groups on the azobenzene derivative. See Example 3. Hereinafter, the functionalized PCCA having azobenzene attached thereto is referred to as “AZO-PCCA”. […] For example, spiropyran may be attached to the gel by directly copolymerizing the spiropyran with the acrylamide. The photosensitive components of the present invention may be synthesized by methods well-known in the art."}, "[2]": {"test": "thermal relaxation in the dark (cis-trans azobenzene isomerization)", "conditions": "azobenzene derivative in solution; 24° C.; monoexponential", "experimental": "FIG. 3 is a graph showing the characteristic time for UV irradiation and thermal relaxation of the AZO-PCCA. The characteristic time for UV irradiation (trans-cis azobenzene isomerization), which was performed at 365 nm, 10 mW, is ˜50 seconds (curve 1 and 2). The response time of the PCCA diffraction shift could be reduced by increasing the actinic light power. In addition, the characteristic time for thermal relaxation (cis-trans azobenzene isomerization), which was performed by placing the AZO-PCCA in the dark, is ˜10 days (curve 3 and 4).\n(§1) In addition, a shoulder arising from the nπ* transition is evident at long wavelength side of the ππ* peak. This peak, due to nπ* transition, at 434 nm becomes dominant when a photostationary state under UV irradiation is reached (mainly cis-azobenzene). The intensity of the nπ* peak increases as the intensity of the ππ* band decreases due to the conversion of trans isomer to cis under UV light (FIG. 1). This is a typical behavior of azobenzene-type molecules. The photochemical behavior of a water solution of the azobenzene derivative of the present invention was determined under UV irradiation (365 nm, 20 mW) and irradiation with visible light ([…], ˜50 mW). Under 488 nm irradiation, the trans-isomer is restored and the photostationary state under visible light is very close to the equilibrium state in dark. […]"}, "[3]": {"test": "photochemical behavior of a water solution of the azobenzene derivative under UV irradiation", "conditions": "UV 365 nm, 20 mW, monoexponential fit", "description": "as §1, with “dark. When the azobenzene derivative was exposed to 365 nm irradiation, kinetic data fitted well to monoexponential function with the characteristic time of ˜40 seconds. In addition, thermal relaxation in dark follows monoexponential function with characteristic time of about 10 days at 24° C. Furthermore, the photochemical behavior of the azobenzene derivative of the present invention when covalently attached to the functionalized PCCA of the present invention was close to that of the azobenzene derivative in solution.” for “dark.”"}},
  "data": [
    {"smiles": "NCc1ccc(N=Nc2ccc(OCC(O)CO)cc2)cc1", "note": "(stereo not drawn) [azobenzene derivative, 4-N-aminomethylbenzolazo-4-phenoxy glycerol ether]", "values": [
      {"measurement": "water solubility", "setting": "[1]", "result": "improved water solubility"},
      {"measurement": "characteristic time of thermal relaxation in dark", "setting": "[2]", "result": "about 10 days"},
      {"measurement": "characteristic time, 365 nm irradiation (trans-cis)", "setting": "[3]", "result": "~40", "unit": "s"}
    ]}
  ]
}
